Assays:
[1] = test system: Nalm6, Nalm6 CRISPR variant, SEM or PDX leukemia; experiment: Nalm6 / SEM xenograft and PDX in vivo studies (IVIS luminescence); set-up: species or system NSG mice
[2] = test system: ALL and DLBCL tumor cells (Nalm6 site density lines and others); experiment: In vitro cytokine / granzyme B production assay (ELISA), CAR T cells co-cultured with tumor cells; assay type: cell-based, human
Description: For cytokine production assays, CAR or mock T cells were washed to remove IL-2 and re-suspended in RPMI medium. 1×10^5 effector cells were then co-cultured with tumor cells in RPMI at a 1:1 effector to target ratio in 96-well plates and incubated at 37° C. for 20 hours. The plates were spun at 1200 RPM for 6 minutes to pellet the cells, and cytokine concentrations in the culture supernatants were measured using IL-2 ELISA (R&D systems), IFNγ ELISA (R&D systems), or granzyme B ELISA (Thermo Fisher Scientific) kits according to the manufacturer's directions.

[3] = test system: CD22 expression on ALL and DLBCL cell lines (Nalm6, Kopn8, SEM, Pfeiffer, Toledo, PDX); conditions: Biberacher et al. 2012; cited from earlier work
[4] = test system: CD19 expression on ALL and DLBCL cell lines; experiment: CD19 expression on cell lines by flow cytometry after Bryostatin 1 exposure; assay type: cell-based, human; conditions: 1 ng/ml, 24 hours
Description: FIGS. 3A-3D: (FIG. 3A) Four cell lines (Nalm6, Kopn8, Pfieffer and Toldeo) were co-incubated with 1 ng/ml Bryostatin 1 for 24 hours and analyzed using flow cytometry one day after Bryostatin 1 exposure. Site density was analyzed using standardized Quantibrite-PE beads. (FIG. 3B) Cell lines were co-incubated with 1 ng/ml Bryostatin 1 for 24 hours, washed, and analyzed using flow cytometry at 1 and 7 days after Bryostatin 1 exposure. Fold change was calculated based on site density: (Cell line Bryostatin 1—Cell line DMSO)/Cell line DMSO. (FIG. 3C) NSG mice were injected with 1×10^6 GPF-positive Nalm6 leukemia cells on Day 0. Bryostatin 1 was administered at 0.8 μg/kg on Day 3. Mice were sacrificed 7 and 12 days after Bryostatin 1 injection and CD22 was evaluated by flow cytometry. (FIG. 3D) CD22-low relapse PDX cell line was cultured in vitro with 1 nmol/L Bryostatin 1 for 24 hours and measured for CD22 expression using CD22 antibody. […]
FACS analysis of cell surface CAR and protein expression was performed using an LSR II Fortessa flow cytometer (BD Biosciences). CD22-CAR was detected by incubation with 22-Fc (R&D Systems), followed by incubation with human IgG-specific PE-F(ab)2 (Thermo Fisher Scientific). […] CD22 site density was determined using QuantiBrite-PE beads (BD Biosciences) using methods previously described (Jasper et al., Cytometry B Clin Cytom 80(2):83-90, 2011). […]

[5] = test system: CD22^lo or Nalm6 leukemia; experiment: CAR T cell persistence and phenotype by flow cytometry in leukemia-bearing mice; assay type: in vivo, NSG mice
Description: FIGS. 9A-9F: (FIGS. 9A-9B) A total of 1×10^5 tumor cells were co-cultured with 1×10^5 mock, CD22, or […] CAR and assessed for IFNγ and IL2 cytokines by ELISA from cell culture supernatants (statistics were calculated using paired t test (*, P<0.0332); FIG. 9A) or Annexin V staining was assessed over time using IncuCyte ZOOM (FIG. 9B). […] (FIG. 9C) NSG mice were injected with 1×10^6 GPF-positive CD22^neg, CD22^lo, or Nalm6 tumor cells on day 0. On day 3, 5×10^6 CD22 or CD22^V1 CAR were injected for treatment. Mice were imaged using IVIS technology and luciferin-D intraperitoneal injections. Luminescence quantification is shown on the right. […] (FIG. 9D) CD22 or CD22^V1 CART were co-incubated with tumor cells. On days 1 and 8, CAR was harvested, stained for flow cytometry, and analyzed on Fortessa flow machine. Statistics were calculated using unpaired t test (*, P<0.0332). (FIGS. 9E-9F) Mice were injected with CD22^lo or Nalm6 leukemia on day 0. […] Bone marrow cells were stained for flow cytometry and analyzed on Fortessa flow machine. Statistics were calculated using unpaired t test (****, P<0.0001; *, P<0.0332).
FIGS. 13A-13F: (FIG. 13A) BIAcore analysis was used to evaluate association and dissociation curves of various scFvs. Note: The calculated dissociation rate constant kd (1.1×10^−6 l/s) is lower than the kd which can be measured by the BIAcore X-100 used here (1.0×10^−5 l/s). […] (FIG. 13B) CD22^V1 or CD22 CART were co-cultured with CD22^neg or CD22^lo leukemia and evaluated at 24 hours for PD1 expression through flow cytometry on a Fortessa flow machine. […] Bone marrow cells were stained for flow cytometry and analyzed on Fortessa flow machine. Statistics were calculated using unpaired t-test (** p<0.0021).
CD22-CAR functionality and anti-leukemic efficacy were evaluated in vivo in Nalm6 xenograft or PDX models with NOD.Cg-Prkdcscid Il2rgtm1Wjl/SzJ (NSG) mice (The Jackson Laboratory and bred in-house) ages 6-10 weeks. […] On day 3, mice received CD22-CAR-transduced T cells or mock-transduced T cells intravenously at the indicated quantity. […]

[6] = CAR T cells pre-treated 1 ng/ml 24 hours, co-culture with ALL or DLBCL cell lines

## CCC/C=C/C=C/C(=O)O[C@H]1/C(=C/C(=O)OC)C[C@H]2C[C@H]([C@@H](C)O)OC(=O)C[C@H](O)C[C@@H]3C[C@H](OC(C)=O)C(C)(C)[C@](O)(C[C@@H]4C/C(=C/C(=O)OC)C[C@H](/C=C/C(C)(C)[C@]1(O)O2)O4)O3 [Bryostatin 1]
[1]; Nalm6 and SEM, 40 μg/kg once weekly for 2 weeks
  durability of remission after subcurative dose of CD22 CART: improved durability of remission
[1]; SEM, 40 μg/kg once weekly for 2 weeks
  efficacy of the CD19 CAR in vivo: did not reduce efficacy
[1]; once weekly for 2 weeks after CD22 CART
  ability of CD22-CAR to attenuate progression of CD22^lo leukemia in vivo: did not impact
[2]; [6]
  IFN-γ produced by pre-treated CD22 CAR relative to DMSO-control: attenuated levels
  granzyme B produced by pre-treated CD22 CAR relative to DMSO-control: significantly increased levels
[2]; SEM cells exposed to 1 nM for 24 hours
  Granzyme B production by the CD19 CAR: did not show improved Granzyme B production
[2]; pre-treatment of B-ALL and DLBCL target cells, 1 ng/ml 24 hours
  production of IL-2, IFN-γ, and granzyme B by the CD22 CAR: significantly enhanced
[3]
  CD22 expression on chronic lymphocytic leukemia (CLL): increase CD22 expression
[4]
  CD19 expression on ALL: did not alter
  CD19 expression on DLBCL: modest increase
[5]; 30 days, drug 40 μg/kg once weekly for 2 weeks after CART
  CD22 CART in bone marrow: slightly increased
[5]; Nalm6 pretreated with drug, seven days after CD22 CAR injection
  central memory and effector memory cells within CD8+ CART population, spleen: significant cumulative enrichment
[5]; with Bryostatin 1 exposure
  CART activation/exhaustion markers (PD1, TIM3, LAG3): stable PD1 expression, without increase in TIM3 or LAGS
